According to patent US6831190B1, “Guanidinomethyl cyclohexane carboxylic acid ester derivatives” (Teikoku Chemical Industries Co., Ltd., priority 1994, dated 2004):
In brackets after ≈: the same amount, converted by molar mass. Like-named read-outs stand apart in the source and are kept apart here.

What was measured:
Type in all cases: cell-based
[1] = tested on: Helicobacter pylori ATCC 43504; assay: MIC, agar plating dilution (standard method of Japanese Chemotherapy Academy)
Protocol: (§1) 1. Minimum Inhibitory Concentration (MIC) was measured in accordance with the standard method of Japanese Chemotherapy Academy (Chemotherapy, 29: 76-79, 1981). Sensitivity was measured with an agar plating dilution using Brain-Heart Infusion agar (Difco Co.) which was added 0.1% of cyclodextrin. […] of the solutions of the compounds which were obtained in examples of the present invention was prepared by dissolving in dimethylsulfoxide. […] Each of 1 ml of those prepared solutions was dispensed in share, after sterilization, 9 ml of sensitivity measuring medium which is kept at 50° C. was added to each, and they were sufficiently mixed. The mixture was used as a plate for measuring sensitivity. Brain Heart Infusion agar medium (Difco Co.), which was added 0.1% of cyclodextrin, was used as bacteria growing medium, and was cultured under microair at 37° C. for three days, and the number of bacteria thereof was adjusted to about 106/ml. This was used as a bacterial solution for inoculation. The medium was painted in each square about 2 cm with nichromic line loop. The medium was cultured under microair for three days at 37° C.

[2] = tested on: Helicobacter pylori ATCC 43629; assay: as above
Protocol: as §1

[3] = tested on: Escherichia coli NIH JC-2; assay: MIC, standard method of Japanese Chemotherapy Academy; settings: Objected Strain 3: Escherichia coli NIH JC-2
Protocol: 1. Minimum Inhibitory Concentration (MIC) was measured in accordance with the standard method of Japanese Chemotherapy Academy (Chemotherapy, 29: 76-79, 1981).

[4] = Objected Strain 1: Helicobacter pylori ATCC 43504
[5] = Objected Strain 2: Helicobacter pylori ATCC 43629
[6] = ATCC43504, Objected Strain 1: Helicobacter pylori ATCC 43504, read-out: MIC
[7] = ATCC43629, Objected Strain 2: Helicobacter pylori ATCC 43629, read-out: MIC

Row | Structure (SMILES) | MIC [1, 4] | MIC [2, 5] | MIC [3] | MIC [1, 6] | MIC [2, 7] | MIC ([3]; NIHJC2, read-out: MIC)
1 | Cl.N=C(N)NC[C@H]1CC[C@H](C(=O)Oc2ccccc2-c2ccccc2)CC1 [Compound 2, trans4-guanidinomethyl cyclohexane carboxylic acid (2-phenylphenylester)hydrochloride, reference compound] | 25 µg/mL | 25 µg/mL | >25 µg/mL |  |  | 
2 | Cl.N=C(N)NC[C@H]1CC[C@H](C(=O)Oc2cccc3ccccc23)CC1 [Compound 3, trans-4-guanidinomethyl cyclohexane carboxylic acid (1-naphthylester)hydrochloride, reference compound] | >25 µg/mL | >25 µg/mL | >25 µg/mL |  |  | 
3 | Cl.N=C(N)NC[C@H]1CC[C@H](C(=O)Oc2ccc3ccccc3c2)CC1 [Compound 4, trans-4-guanidinomethyl cyclohexane carboxylic acid (2-naphthylester)hydrochloride, reference compound] | 25 µg/mL | 25 µg/mL | >25 µg/mL |  |  | 
4 | N=C(N)NCC1CCC(C(=O)Oc2ccc(C(=O)OCc3ccccc3)cc2)CC1 (stereo not drawn) [Compound 5, reference compound] |  |  |  | 12.5 µg/mL (≈ 30.5 µM) | 6.25 µg/mL (≈ 15.3 µM) | > 25 µg/mL
5 | CCc1ccc(OC(=O)C2CCC(CNC(=N)N)CC2)cc1 (stereo not drawn) [Compound 6, reference compound] |  |  |  | 25 µg/mL (≈ 82.4 µM) | 25 µg/mL (≈ 82.4 µM) | > 25 µg/mL
6 | CC(C)(C)c1ccc(OC(=O)C2CCC(CNC(=N)N)CC2)cc1 (stereo not drawn) [Compound 7, reference compound] |  |  |  | 25 µg/mL (≈ 75.4 µM) | 12.5 µg/mL (≈ 37.7 µM) | > 25 µg/mL
7 | Cl.N=C(N)NC[C@H]1CC[C@H](C(=O)Oc2cccc(-c3ccccc3)c2)CC1 [Example 1, trans-4-guanidinomethyl cyclohexane carboxylic acid (3-phenylphenylester).hydrochloride] | 12.5 µg/mL | 6.25 µg/mL | >25 µg/mL |  |  | 
8 | Cl.N=C(N)NC[C@H]1CC[C@H](C(=O)Oc2ccc(-c3ccc(Br)cc3)cc2)CC1 [Example 4, trans-4-guanidinomethyl cyclohexane carboxylic acid [4-(4-bromophenyl)phenylester].hydrochloride] | 1.56 µg/mL | 0.39 µg/mL | >25 µg/mL |  |  | 
9 | COc1ccc(-c2ccc(OC(=O)[C@H]3CC[C@H](CNC(=N)N)CC3)cc2)cc1.Cl [Example 5, trans-4-guanidinomethyl cyclohexane carboxylic acid [4-(4-methoxyphenyl)phenylester].hydrochloride] | 3.13 µg/mL | 1.56 µg/mL | >25 µg/mL |  |  | 
10 | Cl.N=C(N)NC[C@H]1CC[C@H](C(=O)Oc2ccc(-c3ccccc3)cc2Cl)CC1 [Example 6, trans-4-guanidinomethyl cyclohexane carboxylic acid (2-chloro-4-phenylphenylester).hydrochloride] | 6.25 µg/mL | 1.56 µg/mL | >25 µg/mL |  |  | 

Other lines, results leading:

Row | MIC [1, 4] | MIC [2, 5] | MIC [3] | MIC [1, 6] | MIC [2, 7] | MIC ([3]; NIHJC2, read-out: MIC) | Structure (SMILES)
11 | 3.13 µg/mL | 3.13 µg/mL | >25 µg/mL |  |  |  | Cl.N#Cc1ccc(-c2ccc(OC(=O)[C@H]3CC[C@H](CNC(=N)N)CC3)cc2)cc1 [Example 7, trans4-guanidinomethyl cyclohexane carboxylic acid [4-(4-cyanophenyl)phenylester].hydrochloride]
12 | 6.25 µg/mL | 3.13 µg/mL | >25 µg/mL |  |  |  | Cl.N=C(N)NC[C@H]1CC[C@H](C(=O)Oc2c(C(=O)OCc3ccccc3)cccc2-c2ccccc2)CC1 [Example 9, trans-4-guanidinomethyl cyclohexane carboxylic acid (2-benzyloxycarbonyl-6-phenylphenylester).hydrochloride]
13 | 6.25 µg/mL | 6.25 µg/mL | >25 µg/mL |  |  |  | CS(=O)(=O)O.N=C(N)NC[C@H]1CC[C@H](C(=O)Oc2c(C(=O)OCc3ccc(F)cc3)cccc2-c2ccccc2)CC1 [Example 10, trans-4-guanidinomethyl cyclohexane carboxylic acid [2-(4-fluorobenzyloxycarbonyl)-6-phenylphenylester].methansulfonate]
14 | 6.25 µg/mL | 6.25 µg/mL | >25 µg/mL |  |  |  | CS(=O)(=O)O.N=C(N)NC[C@H]1CC[C@H](C(=O)Oc2c(C(=O)OCc3ccc(F)cc3)cc(Br)cc2-c2ccccc2)CC1 [Example 11, trans-4-guanidinomethyl cyclohexane carboxylic acid [4-bromo-2-(4-fluorobenzyloxycarbonyl)-6-phenylphenylester].methanosulforate]
15 | 3.13 µg/mL | 3.13 µg/mL | >25 µg/mL |  |  |  | Cl.N=C(N)NC[C@H]1CC[C@H](C(=O)Oc2c(Cl)cc(Cl)cc2-c2ccccc2)CC1 [Example 12, trans-4-guanidinomethyl cyclohexane carboxylic acid (2,4-dicloro-6-phenylphenylester).hydrochloride]
16 | 12.5 µg/mL | 12.5 µg/mL | >25 µg/mL |  |  |  | Cl.N=C(N)NC[C@H]1CC[C@H](C(=O)Oc2c(Cl)cc(-c3ccccc3)cc2Cl)CC1 [Example 13, trans-4-guanidinomethyl cyclohexane carboxylic acid (2,6-dichloro-4-phenylphenylester).hydrochloride]
17 | 1.56 µg/mL | 3.13 µg/mL | >25 µg/mL |  |  |  | Cl.N=C(N)NC[C@H]1CC[C@H](C(=O)Oc2ccc(-c3ccc([N+](=O)[O-])cc3)cc2)CC1 [Example 22, trans-4-guanidinomethyl cyclohexane carboxylic acid [4-(4-nitrophenyl)phenylester].hydrochloride]
18 | 0.78 µg/mL | 1.56 µg/mL | >25 µg/mL |  |  |  | Cl.N=C(N)NC[C@H]1CC[C@H](C(=O)Oc2ccc(-c3ccc(F)cc3)cc2)CC1 [Example 27, trans-4-guanidinomethyl cyclohexane carboxylic acid[4-(4-fluorophenyl)phenylester].hydrochloride]
19 | 6.25 µg/mL | 12.5 µg/mL | >25 µg/mL |  |  |  | Cl.N=C(N)NC[C@H]1CC[C@H](C(=O)Oc2c(Cl)cc(Cl)c3ccccc23)CC1 [Example 29, trans-4-guanidinomethyl cyclohexane carboxylic acid (2,4-dichloro-1-naphthylester).hydrochloride]
20 | 3.13 µg/mL | 3.13 µg/mL | >25 µg/mL |  |  |  | Cl.N=C(N)NC[C@H]1CC[C@H](C(=O)Oc2c(Cl)cc(Cl)c3ccccc23)CC1 [Example 30, trans-4-guanidinomethyl cyclohexane carboxylic acid (2,4-dichloro-1-naphthyleter).hydrochloride]
21 | 3.13 µg/mL | 0.78 µg/mL | >25 µg/mL |  |  |  | Cl.N=C(N)NC[C@H]1CC[C@H](C(=O)Oc2ccc3cc(Br)ccc3c2)CC1 [Example 31, trans-4-guanidinomethyl cyclohexane carboxylic acid (6-bromo-2-naphthyl ester).hydrochloride]
22 | 3.13 µg/mL | 0.78 µg/mL | >25 µg/mL |  |  |  | Cl.N=C(N)NC[C@H]1CC[C@H](C(=O)Oc2ccc(C3CCCCC3)cc2)CC1 [Example 32, trans-4-guanidinomethyl cyclohexane carboxylic acid (4-cyclohexyphenylester).hydrochloride]
